Experimental findings from patent US20050239152A1, “Continuous-flow enzyme assay” (Kiadis B.V., priority 2002, published 2005) are described below.

Structures are written as SMILES.

Assay [1] concerns the target T1, Cathepsin B (E.C. 3.4.22.1, from bovine spleen) (Bos taurus, UniProt P07688). The note with it: FI-CF system, FIG. 7; antipain compared with E64.
Experimental: The enzymatic assay was performed in a continuous-flow ESI-TOF-MS system where the enzyme cathepsin B and the substrate Z-FR-AMC were subsequently added to the carrier solution of a flow injection system simulating the effluent of an LC column. As a consequence, cathepsin B was continuously incubated with Z-FR-AMC, resulting in a continuous supply of converted substrate. The product was pumped into the mass spectrometer and monitored. Various compounds were injected into the continuous-flow system, incubated with the enzyme in a reaction coil and subsequently pumped into the mass spectrometer. […]
More in detail, samples were analyzed by two different continuous-flow (CF) systems, which both consisted of a homogeneous bioassay coupled to a Micromass (Wythenshawe, UK) Q-Tof micro mass spectrometer. […] The amount of formed product was determined by MS, which was equipped with a Micromass Z-spray electrospray ionization (ESI) source. […]
Carrier solution (20 μL/min) was mixed continuously with cathepsin B solution (10 μL/min) in reaction coil A for 40 sec, and carrier/cathepsin B solution with Z-FR-AMC solution (30 μL/min) in reaction coil B for 45 sec. The resulting flow (40 μL/min) coming out of reaction coil B was pumped into the mass spectrometer, where the amount of formed product was directly monitored by ESI-TOF-MS. […]
Assay [2] deals with T1, Cathepsin B (E.C. 3.4.22.1, from bovine spleen). The assay can be described thus: LC-continuous-flow (LC-CF) ESI-TOF-MS cathepsin B assay, substrate Z-FR-AMC. The conditions noted are these: LC-CF system, FIG. 8; mixture injected, E64 40 μM, CA-074 90 μM.
Experimental: For the HPLC screening, solutions were prepared as described herein-above and filled in superloops. Used concentrations were 30 nM cathepsin B and 6 μM internal standard 1, and 50 μM Z-FR-AMC and 6 μM internal standard 2, for superloop 1 and superloop 2, respectively. Injected inhibitors: E64 and CA074, which were in mixture injected (E64: 40 μM; CA-074: 90 μM). […] Compounds injected via an autoinjector were separated by the LC-column, using a binary gradient system consisting of carrier solution and methanol. In order to reduce the amount of methanol that was necessary for separation, a makeup solution was added to the column effluent, resulting in a constant methanol concentration of 10%. Decreasing the concentration of methanol was necessary to prevent enzyme degradation. […] In the LC-CF system, both the enzyme solution and the substrate solution were delivered at a flow rate of 50 μL/min, resulting in a total flow rate of 100 μL/min into the mass spectrometer.
The RP-separation was performed by a binary gradient system, using water and methanol. The organic modifier, however, decreases the activity of enzymes. For this reason, a makeup flow was added after the LC-column (see FIG. 5) to reduce the concentration of methanol. […] This flow was used as the carrier solvent that was pumped into the continuous-flow system. […]

As for `CC(C)C[C@H](NC(=O)[C@H]1O[C@@H]1C(=O)O)C(=O)NCCCCN=C(N)N` (relative stereo) [E64, trans-epoxysuccinyl-L-leucylamido-(4-guanidino)butane], the “injected concentration giving more or less the same area of negative peaks” value in assay [1] was 0.50 µM. Besides, in assay [2], the “negative peak in product mass trace after LC separation” value is “caused by inhibition”.
